# How the values were obtained:
# [1] = Acute toxicity (LD50, Litchfield-Wilcoxon test); conditions: mouse, in vivo, ip; intraperitoneal; deaths counted 48 hours after treatment; fasted mice
# Description: Acute toxicity studies were performed on I.C.R. Swiss albino mice of both sexes weighing 30±2 g, kept fasting for 24 hours prior to the experiment. The room temperature and relative humidity were kept constant. The products were administered intraperitoneally, counting the number of deaths 48 hours after the treatment. The calculation of lethal dose 50 (LD50) was made by the Litchfield-Wilcoxon test.
# I.C.R. Swiss albino mice [2] = assay: Thermal analgesia, hot plate technique at 55° C.; format: in vivo; conditions: 50mg/kg, intraperitoneal; for thermal analgesic activity (in words): compared with dextropropoxyphene / control; for Jumping time, mean ± S.E.M.: 30 minutes
# Description: The thermal analgesic effect was studied on I.C.R. Swiss albino mice. The hot plate technique was used at 55° C. Batches of 10 mice were made.
# The products under study were administered intraperitoneally and after 30 minutes the mice were placed on the hot plate, counting the number of seconds they took to jump. Batches of control animals which are only injected with distilled water are used.
# I.C.R. Swiss albino mice [3] = assay: Chemical analgesia, acetic acid writhing technique; format: in vivo; conditions: 25mg/kg, intraperitoneal; for analgesic activity, acetic acid writhing (in words): compared with dextropropoxyphene; for No. of writhes, mean ± S.E.M.: 20 minutes after acetic acid; for Significance of differences vs Dextropropoxyphene: No. of writhes
# Description: The analgesic effect was studied on I.C.R. Swiss albino mice with the acetic acid writhing technique. Batches of 10 mice were made.
# The products under study were administered intraperitoneally and after 30 minutes 0.25 ml of 1% acetic acid are injected intraperitoneally. A batch of control animals which only receive acetic acid is used. The number of writhes in each mouse is counted 20 minutes after administration of the acetic acid.
# [4] = Table III, Control 48.8 ± 5.033
# [5] = Table VI, Control 109.9 ± 6.362
# [6] = Table VII, Control 109.9 ± 6.362
SMILES,LD50 at 48 h [1],thermal analgesic activity (in words) (I.C.R. Swiss albino mice [2]),"Jumping time, mean ± S.E.M. (I.C.R. Swiss albino mice [2]; Table II, Control 64 ± 7.919)","Significance of differences vs Dextropropoxyphene (I.C.R. Swiss albino mice [2]; Table II, jumping time)","analgesic activity, acetic acid writhing (in words) (I.C.R. Swiss albino mice [3])","No. of writhes, mean ± S.E.M. (I.C.R. Swiss albino mice [3]; Table V, Control 101.4 ± 8.973)","Jumping time, mean ± S.E.M. (I.C.R. Swiss albino mice [2]; [4])","Jumping time, mean ± S.E.M. (I.C.R. Swiss albino mice [2]; Table IV, Control 48.8 ± 5.033)","No. of writhes, mean ± S.E.M. (I.C.R. Swiss albino mice [3]; [5])","No. of writhes, mean ± S.E.M. (I.C.R. Swiss albino mice [3]; [6])",Significance of differences vs Dextropropoxyphene (I.C.R. Swiss albino mice [3]; Table VI),Significance of differences vs Dextropropoxyphene (I.C.R. Swiss albino mice [3]; Table VII)
"CN1CCC2(C)CC1Cc1c2sc2ccccc12 (racemic) [Product I, 2,5-dimethyl-benzo[b]thieno[2,3-f]morphan]",35.2 mg/kg,analgesic activity which is not significantly different from that of dextropropoxyphene,168.67 ± 11.334 s,N.S.,greater analgesic activity then dextropropoxyphene,3.1 ± 1.234,–,–,–,–,–,–
"CCC(=O)O[C@](Cc1ccccc1)(c1ccccc1)[C@H](C)CN(C)C [Dextropropoxyphene, dextropropoxyphene, reference compound]",–,–,164 ± 7.319 s,–,–,21.5 ± 5.929,91.3 ± 7.894 s,91.3 ± 7.894 s,27.8 ± 8.365,27.8 ± 8.365,–,–
"CC1=CCN(C)C(Cc2csc3ccccc23)C1 (stereo not drawn) [Product II, 2-(3-benzo[b]thienylmethyl)-1,4-dimethyl-1,2,3,6-tetrahydropyridine]",916 mg/kg,lacking thermal analgesic activity,–,–,not significantly different from that of dextropropoxyphene,–,63 ± 8.368 s,–,41.2 ± 6.024,–,N.S.,–
"CC1=CC(Cc2csc3ccccc23)N(C)CC1 (stereo not drawn) [Product III, 2-(3-benzo[b]thienylmethyl)-1,4-dimethyl-1,2,5,6-tetrahydropyridine]",275 mg/kg,lacking thermal analgesic activity,–,–,not significantly different from that of dextropropoxyphene,–,–,48.9 ± 5.292 s,–,22.5 ± 6.263,–,N.S.

# Reference: patent publication US4179565A, “2,5-Dimethyl-benzo[b]-thieno[2,3-f]morphan and precursors thereof” (priority 1977, dated 1979)
